In PubChem BioAssay AID1963868 (Molecular Pharmacology Branch, DTP, NCI, 2024):
pIC50: −log10 of the molar value.

System: KRAS PDC tumor spheroids (HUVEC+MSC), viability
Assay: Anticancer human tumor 254851-301-R-J1-PDC patient-derived colon carcinoma cell line growth inhibition [KRAS2]
Conditions: for pIC50: curve of first compound; for viability, T/C: stronger effect = lower value
Text: Multicellular complex tumor spheroid response to RAS pathway inhibitors in combination with a targeted agents in patient-derived cell lines with oncogenic KRAS variants from multiple cancer types
A high-throughput screen of multi-cell type tumor spheroids was designed to identify active combinations of targeted small molecules and KRAS pathway inhibitors. Complex spheroids include a stromal component modeled by human endothelial cells (HUVEC) and fibroblasts modeled by human mesenchymal stem cells (MSCs). The concentration ranges selected for each drug and investigational agent were based upon clinically achievable concentrations if the clinical Cmax of the agent was known.
Compounds. The drugs and investigational agents: BI-3406 (NSC825286), BAY-293 (NSC824723), batoprotafib (TNO155; NSC825523), sotorasib (AMG 510; NSC818433), MRTX1257 (NSC819558), elimusertib (BAY 1895344; NSC800525), molibresib (GSK525762; NSC774829), temuterkib (LY3214996; NSC803410), venetoclax (NSC766270), alisertib (NSC759677), olaparib (NSC753686), talazoparib (NSC767125), erdafitinib (NSC781556), ipatasertib (NSC767898), cabozantinib (NSC761068), nintedanib (NSC756659), abemaciclib (NSC768073), docetaxel (NSC628503), trametinib (NSC758246), and sapanisertib (NSC764658) were obtained from the National Cancer Institute (NCI) Developmental Therapeutics Program Chemical Repository. The FDA-approved anticancer drug set is available from the Developmental Therapeutics Program. […] The stock solutions were prepared in dimethyl sulfoxide (DMSO, Sigma-Aldrich, St. Louis, MO, cat. D2650) at 800-fold the tested concentration and stored at -70 degrees C prior to their use. All drugs and investigational agents were tested over a range starting from a high concentration at or near the clinical Cmax and decreasing in half-log increments. If the clinical Cmax for an agent had not been determined, the highest concentration tested was 10 microM.
Cell Culture. All cells were maintained in an incubator at 37 degrees C and 5% CO2 with 95% humidity. The PDC lines were cultured according to standard operating procedures established by the NCI PDMR (https://pdmr.cancer.gov/sops/default.htm). Briefly, all PDCs were thawed and cultured in Matrigel-coated flasks prepared with a working solution of 1X Ham's F-12 nutrient mix, without supplementation (Invitrogen, Waltham, MA, cat. 11765054), 100 U/mL penicillin-streptomycin (Invitrogen, cat. 15140122), and 2.5% Matrigel (Corning Inc., Corning, NY, cat. 354248) for the first three passages. All PDCs were cultured in complete DMEM/F-12 media containing advanced DMEM/F-12 (Invitrogen, cat. 12634028), 4.9% defined fetal bovine serum, heat inactivated (HyClone Laboratories Inc., Logan, UT, cat. SH30070.03HI), 389 ng/mL hydrocortisone (Sigma-Aldrich, cat. H4001), 9.7 ng/mL human EGF recombinant protein (Invitrogen, cat. PHG0313), 23.4 microg/mL adenine (Sigma-Aldrich, cat. A2786), 97.3 U/mL penicillin-streptomycin (Invitrogen, cat. 15140122), 1.9 mM L-glutamine (Invitrogen, cat. 25030081), and 9.7 microM Y-27632 dihydrochloride (Tocris Bioscience, Bristol, United Kingdom, cat. 1254). The PDCs were cultured in complete DMEM/F12 media without 9.7 microM Y-27632 dihydrochloride for at least two passages prior to the screen. The established cell line HOP-62 was cultured in RPMI 1640 medium, HEPES (Invitrogen, cat. 22400105) with 10% defined fetal bovine serum (HyClone Laboratories Inc., cat. SH30070.03) and 2 mM L-glutamine (Invitrogen, cat. 25030081). The pooled donor HUVEC were cultured in endothelial cell growth medium 2 (PromoCell, Heidelberg, Germany, cat. C-22011) and the hMSC were cultured in mesenchymal stem cell growth medium 2 (PromoCell, cat. C-28009). For all experiments, HUVEC and hMSC were used at passages </=5, while the malignant cell lines were used at passages </=15. […]

[1] = second compound 0.1 µM, first compound 0.0316 µM
[2] = second compound 0.1 µM, first compound 0.1 µM
[3] = second compound 0.1 µM, first compound 0.316 µM
[4] = second compound 0.1 µM, first compound 1 µM
[5] = second compound 0.1 µM, first compound 3.16 µM
[6] = second compound 0.1 µM, first compound 10 µM
[7] = second compound 0.316 µM, first compound 0.0316 µM
[8] = second compound 0.316 µM, first compound 0.1 µM
[9] = second compound 0.316 µM, first compound 0.316 µM
[10] = second compound 0.316 µM, first compound 1 µM
[11] = second compound 0.316 µM, first compound 3.16 µM
[12] = second compound 0.316 µM, first compound 10 µM
[13] = second compound 1 µM, first compound 0.0316 µM
[14] = second compound 1 µM, first compound 0.1 µM
[15] = second compound 1 µM, first compound 0.316 µM
[16] = second compound 1 µM, first compound 1 µM
[17] = second compound 1 µM, first compound 3.16 µM
[18] = second compound 1 µM, first compound 10 µM
[19] = second compound 3.16 µM, first compound 0.0316 µM
[20] = second compound 3.16 µM, first compound 0.1 µM
[21] = second compound 3.16 µM, first compound 0.316 µM
[22] = second compound 3.16 µM, first compound 1 µM
[23] = second compound 3.16 µM, first compound 3.16 µM
[24] = second compound 3.16 µM, first compound 10 µM
[25] = second compound 10 µM, first compound 0.0316 µM
[26] = second compound 10 µM, first compound 0.1 µM
[27] = second compound 10 µM, first compound 0.316 µM
[28] = second compound 10 µM, first compound 1 µM
[29] = second compound 10 µM, first compound 3.16 µM
[30] = second compound 10 µM, first compound 10 µM
[31] = second compound 0.1 µM, first compound 0.01 µM
[32] = second compound 0.316 µM, first compound 0.01 µM
[33] = second compound 1 µM, first compound 0.01 µM
[34] = second compound 3.16 µM, first compound 0.01 µM
[35] = second compound 10 µM, first compound 0.01 µM
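Further: spheroids exposed to compounds for seven days before readout.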
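Wherever viability, T/C is given: 100% = DMSO vehicle control luminescence of the spheroids.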

Compound	pIC50 (second compound 0.1 µM)	pIC50 (second compound 0.316 µM)	pIC50 (second compound 1 µM)	pIC50 (second compound 3.16 µM)	pIC50 (second compound 10 µM)	viability, T/C [1]	viability, T/C [2]	viability, T/C [3]	viability, T/C [4]	viability, T/C [7]	viability, T/C [8]	viability, T/C [9]	viability, T/C [10]	viability, T/C [13]	viability, T/C [14]	viability, T/C [15]	viability, T/C [16]	viability, T/C [19]	viability, T/C [20]	viability, T/C [21]	also measured
CC(C)NCC(C(=O)N1CCN(c2ncnc3c2C(C)CC3O)CC1)c1ccc(Cl)cc1 (stereo not given) + C=CC(=O)N1CCN(c2nc(=O)n(-c3c(C)ccnc3C(C)C)c3nc(-c4c(O)cccc4F)c(F)cc23)C(C)C1	< 5.00	< 5.00	< 5.00	< 5.00	< 5.00	98.2%	105%	92.1%	98.6%	97.4%	92.6%	91.7%	96.4%	96.9%	99.9%	93%	86.1%	98.1%	105%	95.5%	viability, T/C [5]: 98.4%; viability, T/C [6]: 97%; viability, T/C [11]: 89.2%; viability, T/C [12]: 89.8%; viability, T/C [17]: 92.5%; viability, T/C [18]: 91.2%; viability, T/C [22]: 98.1%; viability, T/C [23]: 93.8%; viability, T/C [24]: 88.4%; viability, T/C [25]: 98.7%; viability, T/C [26]: 102%; viability, T/C [27]: 92.1%; viability, T/C [28]: 85.4%; viability, T/C [29]: 93.4%; viability, T/C [30]: 94.7%
CC1COCCN1c1cc(-c2ccnn2C)c2ccnc(-c3ccn[nH]3)c2n1 (stereo not given) + C=CC(=O)N1CCN(c2nc(=O)n(-c3c(C)ccnc3C(C)C)c3nc(-c4c(O)cccc4F)c(F)cc23)C(C)C1	6.52	6.54	6.43	7.10	6.73	96.8%	65.9%	50%	35.4%	96.8%	74.2%	47.6%	32.1%	85.3%	66.9%	51.6%	36.7%	70.3%	45.2%	27.3%	viability, T/C [31]: 112%; viability, T/C [5]: 22%; viability, T/C [32]: 96.5%; viability, T/C [11]: 23.5%; viability, T/C [33]: 87.6%; viability, T/C [17]: 20.8%; viability, T/C [34]: 74.5%; viability, T/C [22]: 29.7%; viability, T/C [23]: 34.8%; viability, T/C [35]: 103%; viability, T/C [25]: 87.3%; viability, T/C [26]: 59.5%; viability, T/C [27]: 40.8%; viability, T/C [28]: 29.9%; viability, T/C [29]: 22.5%
CCN1CCN(Cc2ccc(Nc3ncc(F)c(-c4cc(F)c5nc(C)n(C(C)C)c5c4)n3)nc2)CC1 + C=CC(=O)N1CCN(c2nc(=O)n(-c3c(C)ccnc3C(C)C)c3nc(-c4c(O)cccc4F)c(F)cc23)C(C)C1	6.02	< 6.00	< 6.00	6.15	< 6.00	96.9%	83.2%	73.2%	47.1%	90.4%	82.6%	73.2%	50.9%	92.8%	78.2%	75.7%	48.4%	97.1%	59.7%	71.4%	viability, T/C (second compound 0.1 µM, first compound 0.00316 µM): 114%; viability, T/C [31]: 101%; viability, T/C (second compound 0.316 µM, first compound 0.00316 µM): 113%; viability, T/C [32]: 107%; viability, T/C (second compound 1 µM, first compound 0.00316 µM): 104%; viability, T/C [33]: 101%; viability, T/C (second compound 3.16 µM, first compound 0.00316 µM): 89.5%; viability, T/C [34]: 87.4%; viability, T/C [22]: 42.6%; viability, T/C (second compound 10 µM, first compound 0.00316 µM): 96.4%; viability, T/C [35]: 105%; viability, T/C [25]: 102%; viability, T/C [26]: 83.2%; viability, T/C [27]: 73.8%; viability, T/C [28]: 56%
CCNC(=O)CC1N=C(c2ccc(Cl)cc2)c2cc(OC)ccc2-n2c(C)nnc21 (stereo not given) + C=CC(=O)N1CCN(c2nc(=O)n(-c3c(C)ccnc3C(C)C)c3nc(-c4c(O)cccc4F)c(F)cc23)C(C)C1	< 5.00	< 5.00	< 5.00	< 5.00	< 5.00	107%	99.6%	96.8%	91%	95%	86.4%	95.2%	76.2%	80.3%	94.8%	86.3%	80.7%	72.3%	76.1%	97%	viability, T/C [5]: 81%; viability, T/C [6]: 77.3%; viability, T/C [11]: 82.2%; viability, T/C [12]: 65.1%; viability, T/C [17]: 89.3%; viability, T/C [18]: 74.2%; viability, T/C [22]: 84.5%; viability, T/C [23]: 79.9%; viability, T/C [24]: 59.4%; viability, T/C [25]: 105%; viability, T/C [26]: 96.2%; viability, T/C [27]: 95.6%; viability, T/C [28]: 91.2%; viability, T/C [29]: 86%; viability, T/C [30]: 67.8%
